Experimental data as given in ChEMBL document CHEMBL4813957, “Antitubercular properties of thiazolidin-4-ones - A review” (Eur J Med Chem, 2021).
Values after ≈ are worked out from the molar mass of the structure shown.

The molecules below were run on Mycobacterium tuberculosis (assay: Antimycobacterial activity against Mycobacterium tuberculosis H37Rv by filter paper disc diffusion method). Conditions: not given.
Format: functional
O=C1CSC(c2ccccc2Cl)N1C(=O)NCCCn1ncc2ccc([N+](=O)[O-])cc21 (stereo not drawn) gave an MIC of 4.25 mg/L (≈ 9.24 µM).
O=C1CSC(c2cccc([N+](=O)[O-])c2)N1C(=O)NCCCn1ncc2ccc([N+](=O)[O-])cc21 (stereo not drawn) gave an MIC of 4.25 mg/L (≈ 9.03 µM).
O=C(NCCCn1ncc2ccc([N+](=O)[O-])cc21)N1C(=O)/C(=C/c2cccc(Cl)c2)SC1c1cccc(Cl)c1 (stereo not drawn) gave an MIC of 1.5 mg/L (≈ 2.58 µM).
Work on O=C1CSC(c2ccc([N+](=O)[O-])cc2)N1C(=O)NCCCn1ncc2ccc([N+](=O)[O-])cc21 (stereo not drawn) yielded an MIC of 4.25 mg/L (≈ 9.03 µM).
O=C(NCCCn1ncc2ccc([N+](=O)[O-])cc21)N1C(=O)/C(=C/c2ccccc2Br)SC1c1ccccc1Br (stereo not drawn) showed an MIC of 4.25 mg/L (≈ 6.33 µM).
O=C1CSC(c2ccccc2)N1C(=O)NCCCn1ncc2ccc([N+](=O)[O-])cc21 (stereo not drawn) gave an MIC of 7.5 mg/L (≈ 17.6 µM).
Molecule O=C(NCCCn1ncc2ccc([N+](=O)[O-])cc21)N1C(=O)/C(=C/c2ccc(Cl)cc2)SC1c1ccc(Cl)cc1 (stereo not drawn) has an MIC of 3.25 mg/L (≈ 5.58 µM).
O=C1CSC(c2ccccc2Br)N1C(=O)NCCCn1ncc2ccc([N+](=O)[O-])cc21 (stereo not drawn) was tested, and the MIC was 4.75 mg/L (≈ 9.42 µM).
O=C(NCCCn1ncc2ccc([N+](=O)[O-])cc21)N1C(=O)/C(=C/c2ccccc2)SC1c1ccccc1 (stereo not drawn) showed an MIC of 6.25 mg/L (≈ 12.2 µM).
O=C1CSC(c2ccc(Br)cc2)N1C(=O)NCCCn1ncc2ccc([N+](=O)[O-])cc21 (stereo not drawn) was tested, and the MIC was 5.25 mg/L (≈ 10.4 µM).
Molecule O=C1CSC(c2ccccc2[N+](=O)[O-])N1C(=O)NCCCn1ncc2ccc([N+](=O)[O-])cc21 (stereo not drawn) has an MIC of 3.75 mg/L (≈ 7.97 µM).
O=C(NCCCn1ncc2ccc([N+](=O)[O-])cc21)N1C(=O)/C(=C/c2ccccc2[N+](=O)[O-])SC1c1ccccc1[N+](=O)[O-] (stereo not drawn) showed an MIC of 2.25 mg/L (≈ 3.73 µM).
In the case of O=C(NCCCn1ncc2ccc([N+](=O)[O-])cc21)N1C(=O)/C(=C/c2ccc(Br)cc2)SC1c1ccc(Br)cc1 (stereo not drawn), the MIC is reported as 2.5 mg/L (≈ 3.72 µM).
O=C(NCCCn1ncc2ccc([N+](=O)[O-])cc21)N1C(=O)/C(=C/c2cccc([N+](=O)[O-])c2)SC1c1cccc([N+](=O)[O-])c1 (stereo not drawn) showed an MIC of 1.75 mg/L (≈ 2.9 µM).
O=C1CSC(c2cccc(Br)c2)N1C(=O)NCCCn1ncc2ccc([N+](=O)[O-])cc21 (stereo not drawn) gave an MIC of 4.5 mg/L (≈ 8.92 µM).
O=C(NCCCn1ncc2ccc([N+](=O)[O-])cc21)N1C(=O)/C(=C/c2ccccc2Cl)SC1c1ccccc1Cl (stereo not drawn) gave an MIC of 2.25 mg/L (≈ 3.86 µM).
Molecule O=C1CSC(c2cccc(Cl)c2)N1C(=O)NCCCn1ncc2ccc([N+](=O)[O-])cc21 (stereo not drawn) has an MIC of 4.5 mg/L (≈ 9.78 µM).
For O=C1CSC(c2ccc(Cl)cc2)N1C(=O)NCCCn1ncc2ccc([N+](=O)[O-])cc21 (stereo not drawn), the MIC was 4.75 mg/L (≈ 10.3 µM).
In the case of O=C(NCCCn1ncc2ccc([N+](=O)[O-])cc21)N1C(=O)/C(=C/c2cccc(Br)c2)SC1c1cccc(Br)c1 (stereo not drawn), the MIC is reported as 1.25 mg/L (≈ 1.86 µM).
O=C(NCCCn1ncc2ccc([N+](=O)[O-])cc21)N1C(=O)/C(=C/c2ccc([N+](=O)[O-])cc2)SC1c1ccc([N+](=O)[O-])cc1 (stereo not drawn) showed an MIC of 1.5 mg/L (≈ 2.49 µM).

Each molecule was assayed on Mycobacterium tuberculosis (assay: Antimycobacterial activity against Mycobacterium tuberculosis H37Rv by microplate alamar blue assay). Conditions: not given.
Format: functional
O=C1/C(=C/c2ccc(O)cc2)SC(=S)N1Cc1nc2ccccc2[nH]1 showed an MIC of 6.25 mg/L (≈ 17 µM).
Cc1ccc(/C=C2\SC(=S)N(Cc3nc4ccccc4[nH]3)C2=O)cc1 gave an MIC of 6.25 mg/L (≈ 17.1 µM).
Cc1ccc2oc(=O)cc(C3SCC(=O)N3c3ccccc3)c2c1 (stereo not drawn) showed an MIC of 25 mg/L (≈ 74.1 µM).
CN1CCN(c2n[nH]c(N3C(=O)CSC3c3ccc4c(c3)OCO4)n2)CC1 (stereo not drawn) was tested, and the MIC was no more than 1 mg/L.
O=C1N/C(=N\c2ccc(S(=O)(=O)Nc3cc(Cl)c(Cl)cc3Cl)cc2)S/C1=C\c1ccc(O)cc1 gave an MIC of 3.12 mg/L (≈ 5.62 µM).
COc1ccc2oc(=O)cc(C3SCC(=O)N3c3ccc(Cl)cc3)c2c1 (stereo not drawn) was tested, and the MIC was 25 mg/L (≈ 64.5 µM).
With O=C1/C(=C/c2ccccc2)SC(=S)N1Cc1nc2ccccc2[nH]1 the MIC was 6.25 mg/L (≈ 17.8 µM).
Cc1ccc(C2SC(C)C(=O)N2c2nc(N3CCN(C)CC3)n[nH]2)cc1 (stereo not drawn) was tested, and the MIC was no more than 1 mg/L.
With O=C(O)c1ccc(N2C(=O)CSC2c2ccc(F)cc2)cc1O (stereo not drawn) the MIC was 6.25 mg/L (≈ 18.7 µM).
Molecule O=C1CSC(c2ccc3c(c2)OCO3)N1c1nc(N2CCOCC2)n[nH]1 (stereo not drawn) has an MIC of no more than 1 mg/L.
COc1ccc(N2C(=O)CSC2c2cc(=O)oc3ccc(C)cc23)cc1 (stereo not drawn) gave an MIC of 25 mg/L (≈ 68 µM).
O=C1/C(=C/c2ccc(F)cc2)SC(=S)N1Cc1nc2ccccc2[nH]1 was tested, and the MIC was 6.25 mg/L (≈ 16.9 µM).

What follows are molecules tested on Mycobacterium tuberculosis (assay: Antimycobacterial activity against Mycobacterium tuberculosis H37Rv ATCC27294 measured after 28 days by two-fold serial dilution method). Conditions: H37Rv ATCC 27294, 672 h, time 28 day.
Format: functional
N=C1S/C(=C\c2ccccc2F)C(=O)N1c1nc2ccc([N+](=O)[O-])cc2s1 gave an MIC of 4.26 µM (≈ 1.71 µg/mL).
N=C1S/C(=C\c2cc([N+](=O)[O-])co2)C(=O)N1c1nc2ccc([N+](=O)[O-])cc2s1 showed an MIC of 6.81 µM (≈ 2.84 µg/mL).
Molecule N=C1S/C(=C\c2ccc(OCc3ccccc3)cc2)C(=O)N1c1ncc([N+](=O)[O-])s1 has an MIC of 6.4 µM (≈ 2.81 µg/mL).
In the case of COc1cc(/C=C2\SC(=N)N(c3nc4ccc([N+](=O)[O-])cc4s3)C2=O)cc(OC)c1OC, the MIC is reported as 7.4 µM (≈ 3.5 µg/mL).
Molecule N=C1S/C(=C\c2cc([N+](=O)[O-])cs2)C(=O)N1c1nc2ccc([N+](=O)[O-])cc2s1 has an MIC of 6.52 µM (≈ 2.83 µg/mL).
With COc1cc(/C=C2\SC(=N)N(c3cccc(C(F)(F)F)c3)C2=O)cc(OC)c1OC the MIC was 7.11 µM (≈ 3.12 µg/mL).
COc1ccc(/C=C2\SC(=N)N(c3cccc(C(F)(F)F)c3)C2=O)cc1 showed an MIC of 4.12 µM (≈ 1.56 µg/mL).
Work on COc1cc(/C=C2\SC(=N)N(c3ncc([N+](=O)[O-])s3)C2=O)cc(OC)c1OC yielded an MIC of 3.31 µM (≈ 1.4 µg/mL).
N=C1S/C(=C\c2ccccc2F)C(=O)N1c1cccc(C(F)(F)F)c1 gave an MIC of 4.25 µM (≈ 1.56 µg/mL).
Molecule COc1ccc(/C=C2\SC(=N)N(c3ncc([N+](=O)[O-])s3)C2=O)cc1 has an MIC of 3.78 µM (≈ 1.37 µg/mL).
In the case of N=C1S/C(=C\c2cc([N+](=O)[O-])co2)C(=O)N1c1cccc(C(F)(F)F)c1, the MIC is reported as 4.07 µM (≈ 1.56 µg/mL).
Molecule N=C1S/C(=C\c2cc([N+](=O)[O-])co2)C(=O)N1c1ncc([N+](=O)[O-])s1 has an MIC of 7.49 µM (≈ 2.75 µg/mL).
Molecule N=C1S/C(=C\c2ccc(OCc3ccccc3)cc2)C(=O)N1c1cccc(C(F)(F)F)c1 has an MIC of 6.88 µM (≈ 3.13 µg/mL).
N=C1S/C(=C\c2cc([N+](=O)[O-])cs2)C(=O)N1c1ncc([N+](=O)[O-])s1 showed an MIC of 7.21 µM (≈ 2.76 µg/mL).
Molecule CC[C@@H](CO)NCCN[C@@H](CC)CO [ETHAMBUTOL] has an MIC of 7.64 µM (≈ 1.56 µg/mL).
N=C1S/C(=C\c2ccccc2F)C(=O)N1c1ncc([N+](=O)[O-])s1 was tested, and the MIC was 3.9 µM (≈ 1.37 µg/mL).

Each molecule was assayed on Mycobacterium tuberculosis (assay: Antimycobacterial activity against Mycobacterium tuberculosis H37Rv incubated for 5 days by microplate alamar blue assay). Conditions: 120 h, time 5 day.
Format: functional
O=C(NN1C(=O)CSC1c1c(-c2ccccc2)[nH]c2ccccc12)c1[nH]c2ccc(Cl)cc2c1-c1ccccc1 (stereo not drawn) gave an MIC of 12.5 mg/L.
Work on O=C1NC(=S)S/C1=C\c1cccc([N+](=O)[O-])c1 yielded an MIC of 0.05 mg/L.
In the case of COc1ccc(/C=C2\SC(=S)N(c3ccc(N)cc3)C2=O)cc1, the MIC is reported as 12.5 mg/L.
With O=C1CSC(c2c(-c3ccccc3)[nH]c3ccccc23)N1c1nc(-c2ccc(Cl)cc2)cs1 (stereo not drawn) the MIC was 50 mg/L.
O=C1NC(=S)S/C1=C\c1ccc[nH]1 gave an MIC of 0.2 mg/L.
Molecule COc1ccc(/C=C2\SC(=S)NC2=O)cc1 has an MIC of 0.1 mg/L.
Cc1ccc(NN2C(=O)CSC2c2ccc(-n3ccnc3)cc2)cc1 (stereo not drawn) gave an MIC of 14.3 µM.
Nc1ccc([N+](=O)[O-])cc1N1C(=O)/C(=C/c2ccccc2)SC1=S showed an MIC of 12.5 mg/L.
O=C1CSC(c2c(-c3ccccc3)[nH]c3ccccc23)N1c1nc(-c2ccccc2)cs1 (stereo not drawn) showed an MIC of 50 mg/L.
Molecule CN(C)c1ccc(/C=C2\SC(=S)N(c3ccc(C=O)cc3)C2=O)cc1 has an MIC of 12.5 mg/L.
In the case of O=C1CSC(c2ccc(-n3cncn3)cc2)N1Nc1ccccc1 (stereo not drawn), the MIC is reported as 14.3 µM.
For O=C1CSC(c2ccc(-n3ccnc3)cc2)N1Nc1ccccc1 (stereo not drawn), the MIC was 14.3 µM.
For COc1ccc(/C=C2\SC(=S)N(c3cc([N+](=O)[O-])ccc3N)C2=O)cc1, the MIC was 12.5 mg/L.

These molecules were tested on Mycobacterium tuberculosis (assay: Antimycobacterial activity against Mycobacterium tuberculosis H37Rv ATCC […] by microplate alamar blue assay). Conditions: 168 h, time 7 day.
Format: functional
In the case of Cc1ccc(C2SC=C3SC(N4C(=O)CSC4c4ccccc4)=NN32)cc1 (stereo not drawn), the MIC is reported as 625 mg/L (≈ 1520 µM).
COc1ccccc1C1SCC(=O)N1C1=NN2C(=CSC2c2ccc(N(C)C)cc2)S1 (stereo not drawn) was tested, and the MIC was 3.12 mg/L (≈ 6.63 µM).
Work on O=C1CSC(c2ccccc2)N1C1=NN2C(=CSC2c2ccc(O)cc2)S1 (stereo not drawn) yielded an MIC of 6.25 mg/L (≈ 15.1 µM).
Work on Cc1ccc(C2SC=C3SC(N4C(=O)CSC4c4ccccc4C)=NN32)cc1 (stereo not drawn) yielded an MIC of 3.12 mg/L (≈ 7.33 µM).
O=C1CSC(c2ccc(O)cc2)N1C1=NN2C(=CSC2c2ccc(O)cc2)S1 (stereo not drawn) gave an MIC of 1.6 mg/L (≈ 3.72 µM).
For COc1ccc(C2SCC(=O)N2C2=NN3C(=CSC3c3ccc(N(C)C)cc3)S2)cc1 (stereo not drawn), the MIC was 3.12 mg/L (≈ 6.63 µM).
O=C1CSC(c2ccccc2Cl)N1C1=NN2C(=CSC2c2ccccc2)S1 (stereo not drawn) showed an MIC of 3.12 mg/L (≈ 7.22 µM).
